Test results as given in US9695155B2, “Herbicidal substituted pyrimidinyloxy benzene compounds” (E. I. DU PONT DE NEMOURS AND COMPANY, priority 2013, dated 2017).

Assays:
blackgrass = assay: Test C postemergence; type: in vivo, Alopecurus myosuroides; details: for Plant response rating (0 to 100), Blackgrass: 16 g ai/ha, 0 is no effect, 100 is complete control; for Blackgrass plant response rating: 31 g ai/ha; for Blackgrass plant response rating / Plant response rating, Blackgrass: scale 0 to 100 (0 no effect, 100 complete control)
How it was run: (§1)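 Seeds were sown in loam–sand blend and sprayed preemergence, while plants at 1- to 4-leaf stage (2–18 cm) in peat-based medium received postemergence sprays; test chemicals were formulated in a non-phytotoxic solvent with surfactant. After 13–15 days in a greenhouse, injury was rated visually against controls, 0 (no effect) to 100 (complete control).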

wheat = assay: Test A postemergence; type: in vivo, Triticum aestivum
How it was run: (§2)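 Compounds in non-phytotoxic solvent with surfactant applied as soil spray preemergence, or postemergence to plants 2-10 cm at one- to two-leaf stage, in loam/sand. After approximately 10 days in greenhouse, injury rated visually versus untreated controls, 0 (no effect) to 100 (complete control).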

lambsquarters = assay: Test C postemergence; type: in vivo, Chenopodium album; details: for Plant response rating (0 to 100), Lambsquarters: 16 g ai/ha, 0 is no effect, 100 is complete control; for Lambsquarters plant response rating: 31 g ai/ha; for Lambsquarters plant response rating / Plant response rating, Lambsquarters: scale 0 to 100 (0 no effect, 100 complete control)
How it was run: as §1

johnsongrass = assay: Test C preemergence; type: in vivo, Sorghum halepense; details: for Johnsongrass plant response rating: preemergence; for Plant response rating, Johnsongrass: Preemergence, 62 g ai/ha, scale 0 to 100, 0 no effect, 100 complete control
How it was run: as §1

barnyardgrass [1] = assay: Test A preemergence; type: in vivo, Echinochloa crus-galli; details: for Barnyardgrass plant response rating (0 to 100 scale, 0 is no effect, 100 is complete control): 125 g ai/ha
How it was run: as §2

ragweed = assay: Test C postemergence; type: in vivo, Ambrosia elatior; details: for Plant response rating (0 to 100), Ragweed: 16 g ai/ha, 0 is no effect, 100 is complete control; for Ragweed plant response rating: 31 g ai/ha; for Ragweed plant response rating / Plant response rating, Ragweed: scale 0 to 100 (0 no effect, 100 complete control)
How it was run: as §1

velvetleaf = assay: Test C postemergence; type: in vivo, Abutilon theophrasti; details: for Plant response rating (0 to 100), Velvetleaf: 16 g ai/ha, 0 is no effect, 100 is complete control; for Velvetleaf plant response rating: 31 g ai/ha; for Velvetleaf plant response rating / Plant response rating, Velvetleaf: scale 0 to 100 (0 no effect, 100 complete control)
How it was run: as §1

soybean = assay: Test C postemergence; type: in vivo, Glycine max; details: for Plant response rating (0 to 100), Soybean: 16 g ai/ha, 0 is no effect, 100 is complete control; for Soybean plant response rating: 31 g ai/ha; for Soybean plant response rating / Plant response rating, Soybean: scale 0 to 100 (0 no effect, 100 complete control)
How it was run: as §1

Italian ryegrass [2] = assay: Test C preemergence; type: in vivo, Lolium multiflorum; details: for Ryegrass, Italian plant response rating: preemergence; for Plant response rating, Ryegrass, Italian: Preemergence, 62 g ai/ha, scale 0 to 100, 0 no effect, 100 complete control
How it was run: as §1

kochia = assay: Test A preemergence; type: in vivo, Kochia scoparia; details: for Kochia plant response rating (0 to 100 scale): 125 g ai/ha
How it was run: as §2

Italian ryegrass [3] = assay: Test A preemergence; type: in vivo, Lolium multiflorum; details: for Ryegrass, Italian plant response rating (0 to 100 scale): 125 g ai/ha
How it was run: as §2

Italian ryegrass [4] = assay: Test A postemergence; type: in vivo, Lolium multiflorum
How it was run: as §2

galium [5] = assay: Test C postemergence; type: in vivo, Galium aparine; details: for Plant response rating (0 to 100), Galium: 16 g ai/ha, 0 is no effect, 100 is complete control; for Galium plant response rating: 31 g ai/ha; for Galium plant response rating / Plant response rating, Galium: scale 0 to 100 (0 no effect, 100 complete control)
How it was run: as §1

giant foxtail = assay: Test C postemergence; type: in vivo, Setaria faberii; details: for Plant response rating (0 to 100), Foxtail, Giant: 16 g ai/ha, 0 is no effect, 100 is complete control; for Foxtail, Giant plant response rating: 31 g ai/ha; for Foxtail, Giant plant response rating / Plant response rating, Foxtail, Giant: scale 0 to 100 (0 no effect, 100 complete control)
How it was run: as §1

galium [6] = assay: Test C preemergence; type: in vivo, Galium aparine; details: for Galium plant response rating: preemergence; for Plant response rating, Galium: Preemergence, 62 g ai/ha, scale 0 to 100, 0 no effect, 100 complete control
How it was run: as §1

morningglory = assay: Test C preemergence; type: in vivo, Ipomoea coccinea; details: for Morningglory plant response rating: preemergence; for Plant response rating, Morningglory: Preemergence, 62 g ai/ha, scale 0 to 100, 0 no effect, 100 complete control
How it was run: as §1

barnyardgrass [7] = assay: Test A postemergence; type: in vivo, Echinochloa crus-galli
How it was run: as §2

[8] = postemergence, visual rating, 13 to 15 days
[9] = 125 g ai/ha, postemergence, visual rating
[10] = Postemergence, 62 g ai/ha, 13 to 15 days
[11] = 31 g ai/ha, 0 to 100 scale, 0 no effect, 100 complete control
[12] = 125 g ai/ha, 0 to 100 scale, 0 no effect, 100 complete control
[13] = 16 g ai/ha, scale 0 to 100 (0 no effect, 100 complete control)
[14] = 125 g ai/ha, scale 0 (no effect) to 100 (complete control)
[15] = 31 g ai/ha, 0 to 100 scale where 0 is no effect and 100 is complete control, visual, approximately 10 days
[16] = 500 g ai/ha, 0 to 100 scale where 0 is no effect and 100 is complete control

FC(F)Oc1cnn(-c2c(Cl)cccc2Oc2ncc(Cl)cn2)c1 [Compound 258]
Plant response rating (0 to 100), Blackgrass (blackgrass; postemergence): 0
Blackgrass plant response rating (blackgrass; [8]): 5
Plant response rating, Blackgrass (blackgrass; [9]): 10
Plant response rating, Blackgrass (blackgrass; [10]): 5
Plant response rating, Wheat (wheat; [11]): 0
Plant response rating, Wheat (wheat; [12]): 50
Plant response rating (0 to 100), Lambsquarters (lambsquarters; postemergence): 50
Lambsquarters plant response rating (lambsquarters; [8]): 65
Plant response rating, Lambsquarters (lambsquarters; [9]): 90
Plant response rating, Lambsquarters (lambsquarters; [10]): 90
Johnsongrass plant response rating (johnsongrass; [13]): 5
Johnsongrass plant response rating (johnsongrass; [14]): 90
Plant response rating, Johnsongrass (johnsongrass): 75
Plant response rating, Barnyardgrass (barnyardgrass [1]; [15]): 50
Barnyardgrass plant response rating (0 to 100 scale, 0 is no effect, 100 is complete control) (barnyardgrass [1]): 90
Plant response rating (0 to 100), Ragweed (ragweed; postemergence): 25
Ragweed plant response rating (ragweed; [8]): 50
Plant response rating, Ragweed (ragweed; [9]): 75
Plant response rating, Ragweed (ragweed; [10]): 50
Plant response rating (0 to 100), Velvetleaf (velvetleaf; postemergence): 55
Velvetleaf plant response rating (velvetleaf; [8]): 65
Plant response rating, Velvetleaf (velvetleaf; [9]): 80
Plant response rating, Velvetleaf (velvetleaf; [10]): 75
Plant response rating (0 to 100), Soybean (soybean; postemergence): 50
Soybean plant response rating (soybean; [8]): 75
Plant response rating, Soybean (soybean; [9]): 95
Plant response rating, Soybean (soybean; [10]): 70
Ryegrass, Italian plant response rating (Italian ryegrass [2]; [13]): 0
Ryegrass, Italian plant response rating (Italian ryegrass [2]; [14]): 70
Plant response rating, Ryegrass, Italian (Italian ryegrass [2]): 25
Plant response rating, Kochia (kochia; [15]): 90
Kochia plant response rating (0 to 100 scale) (kochia): 90
Plant response rating, Ryegrass, Italian (Italian ryegrass [3]; [15]): 0
Ryegrass, Italian plant response rating (0 to 100 scale) (Italian ryegrass [3]): 10
Plant response rating, Ryegrass, Italian (Italian ryegrass [4]; [11]): 0
Plant response rating, Ryegrass, Italian (Italian ryegrass [4]; [12]): 20
Plant response rating (0 to 100), Galium (galium [5]; postemergence): 85
Galium plant response rating (galium [5]; [8]): 90
Plant response rating, Galium (galium [5]; [9]): 100
Plant response rating, Galium (galium [5]; [10]): 95
Plant response rating (0 to 100), Foxtail, Giant (giant foxtail; postemergence): 5
Foxtail, Giant plant response rating (giant foxtail; [8]): 20
Plant response rating, Foxtail, Giant (giant foxtail; [9]): 45
Plant response rating, Foxtail, Giant (giant foxtail; [10]): 25
Galium plant response rating (galium [6]; [13]): 80
Galium plant response rating (galium [6]; [14]): 100
Plant response rating, Galium (galium [6]): 100
Morningglory plant response rating (morningglory; [13]): 10
Morningglory plant response rating (morningglory; [14]): 98
Plant response rating, Morningglory (morningglory): 45
Plant response rating, Barnyardgrass (barnyardgrass [7]; [11]): 10
Plant response rating, Barnyardgrass (barnyardgrass [7]; [12]): 90

N#Cc1cn(-c2c(C#N)cccc2Oc2ncc(Cl)cn2)nn1 [Compound 273]
Plant response rating (0 to 100), Blackgrass (blackgrass; postemergence): 5
Blackgrass plant response rating (blackgrass; [8]): 5
Plant response rating, Blackgrass (blackgrass; [9]): 10
Plant response rating, Blackgrass (blackgrass; [10]): 10
Plant response rating, Wheat (wheat; [12]): 10
Plant response rating, Wheat (wheat; [16]): 50
Plant response rating (0 to 100), Lambsquarters (lambsquarters; postemergence): 25
Lambsquarters plant response rating (lambsquarters; [8]): 40
Plant response rating, Lambsquarters (lambsquarters; [9]): 80
Plant response rating, Lambsquarters (lambsquarters; [10]): 85
Johnsongrass plant response rating (johnsongrass; [13]): 0
Johnsongrass plant response rating (johnsongrass; [14]): 80
Plant response rating, Johnsongrass (johnsongrass): 55
Barnyardgrass plant response rating (0 to 100 scale, 0 is no effect, 100 is complete control) (barnyardgrass [1]): 70
Barnyardgrass plant response rating (barnyardgrass [1]; [16]): 90
Plant response rating (0 to 100), Ragweed (ragweed; postemergence): 30
Ragweed plant response rating (ragweed; [8]): 55
Plant response rating, Ragweed (ragweed; [9]): 80
Plant response rating, Ragweed (ragweed; [10]): 55
Plant response rating (0 to 100), Velvetleaf (velvetleaf; postemergence): 5
Velvetleaf plant response rating (velvetleaf; [8]): 10
Plant response rating, Velvetleaf (velvetleaf; [9]): 30
Plant response rating, Velvetleaf (velvetleaf; [10]): 25
Plant response rating (0 to 100), Soybean (soybean; postemergence): 60
Soybean plant response rating (soybean; [8]): 70
Plant response rating, Soybean (soybean; [9]): 90
Plant response rating, Soybean (soybean; [10]): 90
Ryegrass, Italian plant response rating (Italian ryegrass [2]; [13]): 0
Ryegrass, Italian plant response rating (Italian ryegrass [2]; [14]): 60
Plant response rating, Ryegrass, Italian (Italian ryegrass [2]): 0
Kochia plant response rating (0 to 100 scale) (kochia): 100
Kochia plant response rating (kochia; [16]): 100
Ryegrass, Italian plant response rating (0 to 100 scale) (Italian ryegrass [3]): 20
Ryegrass, Italian plant response rating (Italian ryegrass [3]; [16]): 40
Plant response rating, Ryegrass, Italian (Italian ryegrass [4]; [12]): 50
Plant response rating, Ryegrass, Italian (Italian ryegrass [4]; [16]): 80
Plant response rating (0 to 100), Galium (galium [5]; postemergence): 55
Galium plant response rating (galium [5]; [8]): 60
Plant response rating, Galium (galium [5]; [9]): 80
Plant response rating, Galium (galium [5]; [10]): 60
Plant response rating (0 to 100), Foxtail, Giant (giant foxtail; postemergence): 10
Foxtail, Giant plant response rating (giant foxtail; [8]): 40
Plant response rating, Foxtail, Giant (giant foxtail; [9]): 20
Plant response rating, Foxtail, Giant (giant foxtail; [10]): 10
Galium plant response rating (galium [6]; [13]): 0
Galium plant response rating (galium [6]; [14]): 98
Plant response rating, Galium (galium [6]): 95
Morningglory plant response rating (morningglory; [13]): 5
Morningglory plant response rating (morningglory; [14]): 85
Plant response rating, Morningglory (morningglory): 55
Plant response rating, Barnyardgrass (barnyardgrass [7]; [12]): 70
Plant response rating, Barnyardgrass (barnyardgrass [7]; [16]): 90
